Laboratory results taken from US11304949B2, “Treatment of hidradenitis suppurativa using JAK inhibitors” (Incyte Corporation, priority 2018, dated 2022).

What was measured:
[1] = system: Transformed human keratinocyte (HaCaT) cells stimulated with TNFα and IFNγ; assay: JAK inhibitors in TNFα/IFNγ stimulated keratinocytes, inflammatory mediators in media (ProCarta Multiplex Immunoassay); settings: mean ± 1 standard error
[2] = system: Transformed human keratinocyte (HaCaT) cells stimulated with TNFα and IFNγ; assay: JAK inhibitors in TNFα/IFNγ stimulated keratinocytes, gene expression (QuantiGene Plex); settings: 24 hours, normalized to HPRT1, mean ± standard error
[3] = molecular target: human JAK1 (a.a. 837-1142) (Homo sapiens, UniProt P23458); assay: In vitro JAK kinase assay (HTRF), JAK1; type: biochemical; settings: 1 mM ATP
[4] = system: human JAK1 (a.a. 837-1142); assay: In vitro JAK kinase assay (HTRF), JAK1; type: biochemical; settings: IC50 ratio at 1 mM ATP
[5] = TNFα (25 ng/mL) and IFNγ (25 ng/mL) stimulation, drug 25 nM
[6] = TNFα (25 ng/mL) and IFNγ (25 ng/mL) stimulation, drug 50 nM
[7] = TNFα (25 ng/mL) and IFNγ (25 ng/mL) stimulation, drug 100 nM
[8] = TNFα (25 ng/mL) and IFNγ (25 ng/mL) stimulation, drug 200 nM
[9] = TNFα (25 ng/mL) and IFNγ (25 ng/mL), drug 25 nM
[10] = TNFα (25 ng/mL) and IFNγ (25 ng/mL), drug 50 nM
[11] = TNFα (25 ng/mL) and IFNγ (25 ng/mL), drug 100 nM
[12] = TNFα (25 ng/mL) and IFNγ (25 ng/mL), drug 200 nM

## C[C@@H](O)c1nc2cnc3ccsc3c2n1[C@H]1CC[C@H](CC#N)OC1 [Compound 5, ((2R,5S)-5-{2-[(1R)-1-hydroxyethyl]-1H-imidazo[4,5-d]thieno[3,2-b]pyridin-1-yl}tetrahydro-2H-pyran-2-yl)acetonitrile]
[1]; [5]
  IL-1α concentration in media: 6.8 ± 0.39 pg/mL
  IL-6 concentration in media: 743.07 ± 36.3 pg/mL
  IP-10/CXCL10 concentration in media: 3903.67 ± 366.97 pg/mL
  MIP1α concentration in media: 102.06 ± 4.18 pg/mL
  RANTES concentration in media: 237.57 ± 17.46 pg/mL
[1]; [6]
  IL-1α concentration in media: 6.76 ± 0.4 pg/mL
  IL-6 concentration in media: 698.04 ± 29.79 pg/mL
  IP-10/CXCL10 concentration in media: 3998.62 ± 456.34 pg/mL
  MIP1α concentration in media: 96.35 ± 3.57 pg/mL
  RANTES concentration in media: 237.55 ± 21.78 pg/mL
[1]; [7]
  IL-1α concentration in media: 6.92 ± 0.4 pg/mL
  IL-6 concentration in media: 703.99 ± 42.22 pg/mL
  IP-10/CXCL10 concentration in media: 4100.26 ± 502.48 pg/mL
  MIP1α concentration in media: 96.22 ± 3.58 pg/mL
  RANTES concentration in media: 241.39 ± 22.79 pg/mL
[1]; [8]
  IL-1α concentration in media: 6.3 ± 0.35 pg/mL
  IL-6 concentration in media: 646.2 ± 32.46 pg/mL
  IP-10/CXCL10 concentration in media: 4407.56 ± 645.63 pg/mL
  MIP1α concentration in media: 88.49 ± 5.06 pg/mL
  RANTES concentration in media: 238.51 ± 23.12 pg/mL
[1]; no stimulation, drug 200 nM
  IL-1α concentration in media: 0.31 ± 0.04 pg/mL
  IL-6 concentration in media: 28.84 ± 1.89 pg/mL
  IP-10/CXCL10 concentration in media: 20.39 ± 0.57 pg/mL
  MIP1α concentration in media: 3.11 ± 0.28 pg/mL
  RANTES concentration in media: 9.51 ± 0.56 pg/mL
[2]; [9]
  IL-1α MFI: 1269.66 ± 50.59
  IL-6 MFI: 132.28 ± 7.41
  JAK1 MFI: 200.4 ± 9.84
  JAK2 MFI: 108.89 ± 3.25
  JAK3 MFI: 0.97 ± 0.18
  STAT1 MFI: 3164.74 ± 242.35
  STAT3 MFI: 1572.76 ± 65.5
  STAT4 MFI: 5.4 ± 0.45
  STAT5A MFI: 20.12 ± 1.29
  STAT6 MFI: 1042.76 ± 29.23
  TYK2 MFI: 283.93 ± 8.16
[2]; [10]
  IL-1α MFI: 1336.95 ± 50.97
  IL-6 MFI: 137.61 ± 5.87
  JAK1 MFI: 210.52 ± 7.73
  JAK2 MFI: 106.83 ± 5.94
  JAK3 MFI: 0.99 ± 0.20
  STAT1 MFI: 3017.08 ± 167.96
  STAT3 MFI: 1543.4 ± 58.65
  STAT4 MFI: 6.1 ± 0.36
  STAT5A MFI: 22.69 ± 1.71
  STAT6 MFI: 1046.46 ± 29.12
  TYK2 MFI: 307.36 ± 14.87
[2]; [11]
  IL-1α MFI: 1244.96 ± 41.03
  IL-6 MFI: 122.46 ± 5.35
  JAK1 MFI: 200.25 ± 8.15
  JAK2 MFI: 102.64 ± 3.52
  JAK3 MFI: 1.01 ± 0.17
  STAT1 MFI: 2999.87 ± 197.86
  STAT3 MFI: 1549.17 ± 89.41
  STAT4 MFI: 5.83 ± 0.34
  STAT5A MFI: 19.54 ± 1.34
  STAT6 MFI: 985.1 ± 39.79
  TYK2 MFI: 280.63 ± 10.46
[2]; [12]
  IL-1α MFI: 1163.14 ± 26.71
  IL-6 MFI: 119.49 ± 4.42
  JAK1 MFI: 190.53 ± 7.68
  JAK2 MFI: 92.21 ± 2.9
  JAK3 MFI: 0.86 ± 0.16
  STAT1 MFI: 3161.66 ± 135.8
  STAT3 MFI: 1570.19 ± 51.51
  STAT4 MFI: 5.42 ± 0.52
  STAT5A MFI: 18.33 ± 1.83
  STAT6 MFI: 1013.25 ± 17.15
  TYK2 MFI: 283.28 ± 10.88
[2]; no stimulation, drug 200 nM
  IL-1α MFI: 92.67 ± 5.54
  IL-6 MFI: 5.15 ± 0.31
  JAK1 MFI: 177.97 ± 14.91
  JAK2 MFI: 25.67 ± 1.03
  JAK3 MFI: 0.71 ± 0.15
  STAT1 MFI: 554.64 ± 11.36
  STAT3 MFI: 750.90 ± 27.68
  STAT4 MFI: 4.32 ± 0.53
  STAT5A MFI: 1.99 ± 0.51
  STAT6 MFI: 777.03 ± 29.31
  TYK2 MFI: 220.78 ± 12.01
[3]
  IC50: < 100 nM
[4]
  JAK2/JAK1: >10
